Assay results taken from patent publication USRE48461E1, “Modulation of androgen receptor expression” (Ionis Pharmaceuticals, Inc., priority 2012, dated 2021).
e = 2'-O-(2-methoxyethyl) (MOE); l = locked nucleic acid (LNA); d = 2'-deoxy (DNA)

Experiments:
Format in all cases: cell-based, human
KLK2 mRNA = KLK2 mRNA (AR target gene) in C4-2B MR cells
C4-2B MR cells = experiment: Proliferation of MDV3100-resistant C4-2B cells (CellTiter 96); conditions: 6 days
Method: ISIS 549372, ISIS 549434, ISIS 549458, and ISIS 554221 were each added to the culture media at 0.04 μM, 0.20 μM, 1.00 μM, and 5.00 μM concentration of antisense oligonucleotide. ISIS 347526 was included as a negative control. After a treatment period of 6 days, the proliferative capacity of the cancer cells was measured with using CellTiter 96® AQueous One Solution Cell Proliferation kit (Promega), following the manufacturer's instructions. Results are presented in Table 41 as percent inhibition of proliferation, relative to non-treated cells.

AR mRNA [1] = experiment: AR mRNA in LnCaP cells by free uptake (hAR_LTS00943); conditions: 24 hrs
Method: Cells were plated at a concentration of 4,000 cells/well in 96-well plates. ISIS oligonucleotides, specified in Table 68, were added individually at 0.02 μM, 0.10 μM, 0.50 μM, 2.50 μM, or 10.00 μM. After an incubation period of 24 hrs, mRNA levels were measured using primer probe set hAR_LTS00943.

KLK3 mRNA = KLK3 mRNA (AR target gene) in C4-2B MR cells
total AR mRNA = experiment: Total (full-length) AR mRNA in C4-2B MR cells, free uptake; conditions: free uptake, 24 hrs
Method: Cells were plated at a density of 40,000 cells per well in 96-well plates and cultured in RPMI1640 medium with 10% fetal bovine serum. […] ISIS 549372, ISIS 549458, ISIS 549434, and ISIS 554221 were each added at 0.04 μM, 0.20 μM, 1.00 μM, and 5.00 μM concentrations of antisense oligonucleotide to culture media for free uptake by the cells. […] After a treatment period of 24 hrs, total AR mRNA levels were measured by quantitative real-time PCR using primer probe set RTS3559.

TMPRSS2 mRNA = TMPRSS2 mRNA levels in LMR20 cells; conditions: LMR20 cells; for TMPRSS2 mRNA levels (% baseline value) after treatment with DHT: DHT 10 nM 72 hrs; for TMPRSS2 mRNA levels (% baseline value) after treatment with R1881: R1881 10 nM 72 hrs; for TMPRSS2 mRNA levels (% baseline value) of cells without AR agonist treatment: no AR agonist
Method: (§1) LMR20 cells were plated at 1,500 cells per well in phenol red-free medium with CSS.

AR mRNA [2] = experiment: AR mRNA levels in LMR20 cells (with/without DHT or R1881); conditions: LMR20 cells; for AR mRNA levels (% baseline value) after treatment with DHT: DHT 10 nM 72 hrs; for AR mRNA levels (% baseline value) after treatment with R1881: R1881 10 nM 72 hrs; for AR mRNA levels (% baseline value) of cells without AR agonist treatment: no AR agonist
Method: as §1

[3] = tested on: prostate-specific antigen (PSA) mRNA; experiment: PSA mRNA levels in LMR20 cells; conditions: LMR20 cells; for PSA mRNA levels (% baseline value) after treatment with DHT: DHT 10 nM 72 hrs; for PSA mRNA levels (% baseline value) after treatment with R1881: R1881 10 nM 72 hrs; for PSA mRNA levels (% baseline value) of cells without AR agonist treatment: no AR agonist
Method: LMR20 cells were plated at 1,500 cells per well in phenol red-free medium with CSS. […] Results are presented in Tables 43-45 as mRNA levels expressed as a percentage of the baseline values. mRNA levels may be lowered or increased after treatment.

554221 (ACCAAGTTTCTTCAGC; sugars from the 5' end l3 d10 l3, all phosphorothioate, methylation of C not given here) [compound 554221]
Percent inhibition of KLK2 mRNA in C4-2B MR cells (KLK2 mRNA; 0.04 μM): 24%
Percent inhibition of KLK2 mRNA in C4-2B MR cells (KLK2 mRNA; 0.20 μM): 25%
Percent inhibition of KLK2 mRNA in C4-2B MR cells (KLK2 mRNA; 1.00 μM): 56%
Percent inhibition of KLK2 mRNA in C4-2B MR cells (KLK2 mRNA; 5.00 μM): 66%
Percent inhibition of C4-2B MR cell proliferation (C4-2B MR cells; 0.04 μM): 11%
Percent inhibition of C4-2B MR cell proliferation (C4-2B MR cells; 0.20 μM): 12%
Percent inhibition of C4-2B MR cell proliferation (C4-2B MR cells; 1.00 μM): 0%
Percent inhibition of C4-2B MR cell proliferation (C4-2B MR cells; 5.00 μM): 24%
Percent inhibition of AR mRNA (AR mRNA [1]; 0.02 μM): 0%
Percent inhibition of AR mRNA (AR mRNA [1]; 0.1 μM): 0%
Percent inhibition of AR mRNA (AR mRNA [1]; 0.5 μM): 0%
Percent inhibition of AR mRNA (AR mRNA [1]; 10 μM): 17%
Percent inhibition of KLK3 mRNA in C4-2B MR cells (KLK3 mRNA; 0.04 μM): 0%
Percent inhibition of KLK3 mRNA in C4-2B MR cells (KLK3 mRNA; 0.20 μM): 0%
Percent inhibition of KLK3 mRNA in C4-2B MR cells (KLK3 mRNA; 1.00 μM): 47%
Percent inhibition of KLK3 mRNA in C4-2B MR cells (KLK3 mRNA; 5.00 μM): 56%
Percent inhibition of full-length AR mRNA in C4-2B MR cells (total AR mRNA; 0.04 μM): 0%
Percent inhibition of full-length AR mRNA in C4-2B MR cells (total AR mRNA; 0.20 μM): 0%
Percent inhibition of full-length AR mRNA in C4-2B MR cells (total AR mRNA; 1.00 μM): 0%
Percent inhibition of full-length AR mRNA in C4-2B MR cells (total AR mRNA; 5.00 μM): 23%
TMPRSS2 mRNA levels (% baseline value) after treatment with DHT (TMPRSS2 mRNA; ASO 0.04 μM): 121 % baseline value
TMPRSS2 mRNA levels (% baseline value) after treatment with DHT (TMPRSS2 mRNA; ASO 0.20 μM): 118 % baseline value
TMPRSS2 mRNA levels (% baseline value) after treatment with DHT (TMPRSS2 mRNA; ASO 1.0 μM): 122 % baseline value
TMPRSS2 mRNA levels (% baseline value) after treatment with DHT (TMPRSS2 mRNA; ASO 5.0 μM): 114 % baseline value
TMPRSS2 mRNA levels (% baseline value) after treatment with R1881 (TMPRSS2 mRNA; ASO 0.04 μM): 136 % baseline value
TMPRSS2 mRNA levels (% baseline value) after treatment with R1881 (TMPRSS2 mRNA; ASO 0.20 μM): 134 % baseline value
TMPRSS2 mRNA levels (% baseline value) after treatment with R1881 (TMPRSS2 mRNA; ASO 1.0 μM): 125 % baseline value
TMPRSS2 mRNA levels (% baseline value) after treatment with R1881 (TMPRSS2 mRNA; ASO 5.0 μM): 122 % baseline value
TMPRSS2 mRNA levels (% baseline value) of cells without AR agonist treatment (TMPRSS2 mRNA; ASO 0.04 μM): 95 % baseline value
TMPRSS2 mRNA levels (% baseline value) of cells without AR agonist treatment (TMPRSS2 mRNA; ASO 0.20 μM): 117 % baseline value
TMPRSS2 mRNA levels (% baseline value) of cells without AR agonist treatment (TMPRSS2 mRNA; ASO 1.0 μM): 77 % baseline value
TMPRSS2 mRNA levels (% baseline value) of cells without AR agonist treatment (TMPRSS2 mRNA; ASO 5.0 μM): 73 % baseline value
AR mRNA levels (% baseline value) after treatment with DHT (AR mRNA [2]; ASO 0.04 μM): 137 % baseline value
AR mRNA levels (% baseline value) after treatment with DHT (AR mRNA [2]; ASO 0.20 μM): 135 % baseline value
AR mRNA levels (% baseline value) after treatment with DHT (AR mRNA [2]; ASO 1.0 μM): 136 % baseline value
AR mRNA levels (% baseline value) after treatment with DHT (AR mRNA [2]; ASO 5.0 μM): 100 % baseline value
AR mRNA levels (% baseline value) after treatment with R1881 (AR mRNA [2]; ASO 0.04 μM): 131 % baseline value
AR mRNA levels (% baseline value) after treatment with R1881 (AR mRNA [2]; ASO 0.20 μM): 133 % baseline value
AR mRNA levels (% baseline value) after treatment with R1881 (AR mRNA [2]; ASO 1.0 μM): 124 % baseline value
AR mRNA levels (% baseline value) after treatment with R1881 (AR mRNA [2]; ASO 5.0 μM): 99 % baseline value
AR mRNA levels (% baseline value) of cells without AR agonist treatment (AR mRNA [2]; ASO 0.04 μM): 124 % baseline value
AR mRNA levels (% baseline value) of cells without AR agonist treatment (AR mRNA [2]; ASO 0.20 μM): 140 % baseline value
AR mRNA levels (% baseline value) of cells without AR agonist treatment (AR mRNA [2]; ASO 1.0 μM): 132 % baseline value
AR mRNA levels (% baseline value) of cells without AR agonist treatment (AR mRNA [2]; ASO 5.0 μM): 98 % baseline value
PSA mRNA levels (% baseline value) after treatment with DHT ([3]; ASO 0.04 μM): 97 % baseline value
PSA mRNA levels (% baseline value) after treatment with DHT ([3]; ASO 0.20 μM): 86 % baseline value
PSA mRNA levels (% baseline value) after treatment with DHT ([3]; ASO 1.0 μM): 64 % baseline value
PSA mRNA levels (% baseline value) after treatment with DHT ([3]; ASO 5.0 μM): 64 % baseline value
PSA mRNA levels (% baseline value) after treatment with R1881 ([3]; ASO 0.04 μM): 100 % baseline value
PSA mRNA levels (% baseline value) after treatment with R1881 ([3]; ASO 0.20 μM): 93 % baseline value
PSA mRNA levels (% baseline value) after treatment with R1881 ([3]; ASO 1.0 μM): 80 % baseline value
PSA mRNA levels (% baseline value) after treatment with R1881 ([3]; ASO 5.0 μM): 57 % baseline value
PSA mRNA levels (% baseline value) of cells without AR agonist treatment ([3]; ASO 0.04 μM): 106 % baseline value
PSA mRNA levels (% baseline value) of cells without AR agonist treatment ([3]; ASO 0.20 μM): 118 % baseline value
PSA mRNA levels (% baseline value) of cells without AR agonist treatment ([3]; ASO 1.0 μM): 58 % baseline value
PSA mRNA levels (% baseline value) of cells without AR agonist treatment ([3]; ASO 5.0 μM): 87 % baseline value

347526 (TCTTATGTTTCCGAACCGTT; sugars from the 5' end e5 d10 e5, backbone and methylation of C not given here) [compound 347526]
Percent inhibition of KLK2 mRNA in C4-2B MR cells (KLK2 mRNA; 0.04 μM): 28%
Percent inhibition of KLK2 mRNA in C4-2B MR cells (KLK2 mRNA; 0.20 μM): 29%
Percent inhibition of KLK2 mRNA in C4-2B MR cells (KLK2 mRNA; 1.00 μM): 23%
Percent inhibition of KLK2 mRNA in C4-2B MR cells (KLK2 mRNA; 5.00 μM): 22%
Percent inhibition of C4-2B MR cell proliferation (C4-2B MR cells; 0.04 μM): 11%
Percent inhibition of C4-2B MR cell proliferation (C4-2B MR cells; 0.20 μM): 22%
Percent inhibition of C4-2B MR cell proliferation (C4-2B MR cells; 1.00 μM): 7%
Percent inhibition of C4-2B MR cell proliferation (C4-2B MR cells; 5.00 μM): 16%
Percent inhibition of KLK3 mRNA in C4-2B MR cells (KLK3 mRNA; 0.04 μM): 5%
Percent inhibition of KLK3 mRNA in C4-2B MR cells (KLK3 mRNA; 0.20 μM): 38%
Percent inhibition of KLK3 mRNA in C4-2B MR cells (KLK3 mRNA; 1.00 μM): 42%
Percent inhibition of KLK3 mRNA in C4-2B MR cells (KLK3 mRNA; 5.00 μM): 16%
Percent inhibition of full-length AR mRNA in C4-2B MR cells (total AR mRNA; 0.04 μM): 28%
Percent inhibition of full-length AR mRNA in C4-2B MR cells (total AR mRNA; 0.20 μM): 35%
Percent inhibition of full-length AR mRNA in C4-2B MR cells (total AR mRNA; 1.00 μM): 31%
Percent inhibition of full-length AR mRNA in C4-2B MR cells (total AR mRNA; 5.00 μM): 17%
